According to US20060069132A1, “Azolecarboxamide herbicides” (priority 2004, published 2006):

Key:
barnyardgrass [1] = assay: Test B pre-/postemergence herbicide test; assay type: in vivo, Echinochloa crus-galli; conditions: for Barnyardgrass plant response rating: postemergence, scale 0 (no effect) to 100 (complete control)
Outline: (§1)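 Visual rating, 0 (no effect) to 100 (complete control), versus untreated controls after 13–15 d in greenhouse. Pre- and postemergence applications (postemergence plants 2–18 cm, 1–4 leaves); flooded paddy arm at 2-leaf stage. Compounds in non-phytotoxic solvent plus surfactant.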

Surinam grass = assay: Test B pre-/postemergence herbicide test; assay type: in vivo, Urochloa decumbens; conditions: for Surinam Grass plant response rating: postemergence, scale 0 (no effect) to 100 (complete control)
Outline: (§2)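 Formulation: non-phytotoxic solvent mix with surfactant. Timing: preemergence on seed and postemergence on 2–18 cm plants, applied concurrently. Readout after 13–15 d greenhouse: visual 0–100 control rating against controls.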

cocklebur = assay: Test B pre-/postemergence herbicide test; assay type: in vivo, Xanthium strumarium; conditions: for Cocklebur plant response rating: postemergence, scale 0 (no effect) to 100 (complete control)
Outline: as §1

corn = assay: Test B pre-/postemergence herbicide test; assay type: in vivo, Zea mays; conditions: for Corn plant response rating: postemergence, scale 0 (no effect) to 100 (complete control)
Outline: as §2

large crabgrass = assay: Test B pre-/postemergence herbicide test; assay type: in vivo, Digitaria sanguinalis; conditions: for Crabgrass, Large plant response rating: postemergence, scale 0 (no effect) to 100 (complete control)
Outline: as §2

giant foxtail = assay: Test B pre-/postemergence herbicide test; assay type: in vivo, Setaria faberi; conditions: for Foxtail, Giant plant response rating: postemergence, scale 0 (no effect) to 100 (complete control)
Outline: as §2

lambsquarters = assay: Test B pre-/postemergence herbicide test; assay type: in vivo, Chenopodium album; conditions: for Lambsquarters plant response rating: postemergence, scale 0 (no effect) to 100 (complete control)
Outline: as §2

morningglory = assay: Test B pre-/postemergence herbicide test; assay type: in vivo, Ipomoea coccinea; conditions: for Morningglory plant response rating: postemergence, visual rating, scale 0 (no effect) to 100 (complete control)
Outline: as §1

pigweed = assay: Test B pre-/postemergence herbicide test; assay type: in vivo, Amaranthus retroflexus; conditions: for Pigweed plant response rating: postemergence, scale 0 (no effect) to 100 (complete control)
Outline: as §2

rice [2] = assay: Test B pre-/postemergence herbicide test; assay type: in vivo, Oryza sativa; conditions: 0 = no effect, 100 = complete control, preemergence
Outline: as §2

velvetleaf = assay: Test B pre-/postemergence herbicide test; assay type: in vivo, Abutilon theophrasti; conditions: for Velvetleaf plant response rating: postemergence, scale 0 (no effect) to 100 (complete control)
Outline: as §2

blackgrass = assay: Test B postemergence herbicide test; assay type: in vivo, Alopecurus myosuroides; conditions: postemergence, visual rating, scale 0 (no effect) to 100 (complete control)
Outline: (§3)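 Visual ratings, 0 (no effect) to 100 (complete control), made versus controls after 13–15 d greenhouse. Paddy plants treated at 2-leaf stage; postemergence plants at 1- to 4-leaf stage, 2–18 cm tall.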

wheat = assay: Test B postemergence herbicide test; assay type: in vivo, Triticum aestivum; set-up: key to Wheat plant response rating: 0 = no effect, 100 = complete control; conditions: postemergence, visual rating, scale 0 (no effect) to 100 (complete control)
Outline: (§4)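 After treating 2-leaf paddy plants or 2–18 cm postemergence plants (1 to 4 leaves) with formulated chemical, researchers kept them in a greenhouse for 13–15 days. Effects were judged visually versus controls: 0 indicates none, 100 total control.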

wild oat = assay: Test B postemergence herbicide test; assay type: in vivo, Avena fatua; conditions: postemergence, visual rating, scale 0 (no effect) to 100 (complete control)
Outline: as §4

rice [3] = assay: Test B flooded paddy test; assay type: in vivo, Oryza sativa; conditions: 1000 g ai/ha, visual rating, scale 0 to 100 (0 no effect, 100 complete control), 13 to 15 days
Outline: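 Scale 0–100: zero equals no visible effect, 100 complete control, judged by eye relative to controls. Timing: 13 to 15 days in greenhouse post-treatment. Growth stage at spraying: two leaves (paddy) or one to four leaves, 2–18 cm (postemergence).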

[4] = test system: small flower umbrella sedge; assay: Test B flooded paddy test; assay type: in vivo, Cyperus difformis; conditions: 1000 g ai/ha, visual rating, scale 0 to 100 (0 no effect, 100 complete control), 13 to 15 days
Outline: as §3

ducksalad [5] = assay: Test B flooded paddy test; assay type: in vivo, Heteranthera limosa; conditions: 1000 g ai/ha, visual rating, scale 0 to 100 (0 no effect, 100 complete control), 13 to 15 days
Outline: as §3

barnyardgrass [6] = assay: Test B flooded paddy test; assay type: in vivo, Echinochloa crus-galli; conditions: 1000 g ai/ha, visual rating, scale 0 to 100 (0 no effect, 100 complete control), 13 to 15 days
Outline: as §3

rice [7] = assay: Test C flooded paddy test; assay type: in vivo, Oryza sativa
Outline: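 Postemergence sprays applied to plants 2 to 18 cm tall (1- to 4-leaf stage); paddy species grown to 2-leaf stage under flooding. After 12 to 14 days in greenhouse, visual rating versus untreated controls on 0–100 scale (0 no effect, 100 complete control).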

[8] = test system: smallflower umbrella sedge; assay: Test C flooded paddy test; assay type: in vivo, Cyperus difformis
ducksalad [9] = assay: Test C flooded paddy test; assay type: in vivo, Heteranthera limosa
barnyardgrass [10] = assay: Test C flooded paddy test; assay type: in vivo, Echinochloa crus-galli
Outline: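 Weeds and wheat were sprayed after emergence, at a height of 2 to 18 cm (1–4 leaves), and paddy barnyardgrass was flooded and treated at two leaves. Assessment took place 12–14 days later in the greenhouse on a 0-to-100 visual control scale. A dash means no result was obtained.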

[11] = 125 g ai/ha, 0 = no effect, 100 = complete control, preemergence
[12] = 500 g ai/ha, visual rating, 0 = no effect, 100 = complete control, preemergence
[13] = 62 g ai/ha, scale 0 to 100 (0 no effect, 100 complete control)
[14] = 125 g ai/ha, scale 0 to 100 (0 no effect, 100 complete control)
[15] = 250 g ai/ha, scale of 0 to 100, 0 is no effect, 100 is complete control
[16] = 500 g ai/ha, visual rating after 12 to 14 days, scale 0 to 100 (0 no effect, 100 complete control)

CCNC(=O)c1cccc(NC(=O)c2nn(C(C)(C)C)cc2Cl)c1 [Compound 219]
0: Barnyardgrass plant response rating (0 to 100 scale) (barnyardgrass [1]; [11]) | Barnyardgrass plant response rating (barnyardgrass [1]; 125 g ai/ha, visual rating) | Barnyardgrass plant response rating (barnyardgrass [1]; 500 g ai/ha, visual rating) | Surinam Grass plant response rating (0 to 100 scale) (Surinam grass; [11]) | Plant response rating, Surinam Grass (Surinam grass; [12]) | Surinam Grass plant response rating (Surinam grass; 125 g ai/ha, visual rating) | Cocklebur plant response rating (0 to 100 scale) (cocklebur; [11]) | Plant response rating, Cocklebur (cocklebur; [12]) | Cocklebur plant response rating (cocklebur; 125 g ai/ha, visual rating) | Corn plant response rating (0 to 100 scale) (corn; [11]) | Plant response rating, Corn (corn; [12]) | Corn plant response rating (corn; 125 g ai/ha, visual rating) | Crabgrass, Large plant response rating (0 to 100 scale) (large crabgrass; [11]) | Crabgrass, Large plant response rating (large crabgrass; 125 g ai/ha, visual rating) | Foxtail, Giant plant response rating (0 to 100 scale) (giant foxtail; [11]) | Plant response rating, Foxtail, Giant (giant foxtail; [12]) | Foxtail, Giant plant response rating (giant foxtail; 125 g ai/ha, visual rating) | Lambsquarters plant response rating (0 to 100 scale) (lambsquarters; [11]) | Plant response rating, Lambsquarters (lambsquarters; [12]) | Lambsquarters plant response rating (lambsquarters; 125 g ai/ha, visual rating) | Morningglory plant response rating (0 to 100 scale) (morningglory; [11]) | Morningglory plant response rating (morningglory; 125 g ai/ha) | Pigweed plant response rating (0 to 100 scale) (pigweed; [11]) | Rice plant response rating (0 to 100 scale) (rice [2]; 125 g ai/ha) | Plant response rating, Rice (rice [2]; 500 g ai/ha, visual rating) | Velvetleaf plant response rating (0 to 100 scale) (velvetleaf; [11]) | Velvetleaf plant response rating (velvetleaf; 125 g ai/ha, visual rating) | Blackgrass plant response rating (blackgrass; 125 g ai/ha) | Blackgrass plant response rating (blackgrass; 500 g ai/ha) | Wheat plant response rating (wheat; 125 g ai/ha) | Wheat plant response rating (wheat; 500 g ai/ha) | Oat, Wild plant response rating (wild oat; 125 g ai/ha) | Oat, Wild plant response rating (wild oat; 500 g ai/ha) | Rice plant response rating (rice [3]) | Barnyardgrass plant response rating (barnyardgrass [6]) | Rice plant response rating (rice [7]; [13]) | Rice plant response rating (rice [7]; [14]) | Rice plant response rating (rice [7]; [15]) | Plant response rating, Rice (rice [7]; [16]) | Sedge, Umbrella plant response rating [8, 13] | Sedge, Umbrella plant response rating [8, 14] | Sedge, Umbrella plant response rating [8, 15] | Ducksalad plant response rating (ducksalad [9]; [14]) | Ducksalad plant response rating (ducksalad [9]; [15]) | Plant response rating, Ducksalad (ducksalad [9]; [16]) | Barnyardgrass plant response rating (barnyardgrass [10]; [13]) | Barnyardgrass plant response rating (barnyardgrass [10]; [14]) | Barnyardgrass plant response rating (barnyardgrass [10]; [15]) | Plant response rating, Barnyardgrass (barnyardgrass [10]; [16])
60: Morningglory plant response rating (morningglory; 500 g ai/ha)
10: Surinam Grass plant response rating (Surinam grass; 500 g ai/ha, visual rating) | Corn plant response rating (corn; 500 g ai/ha, visual rating) | Crabgrass, Large plant response rating (large crabgrass; 500 g ai/ha, visual rating) | Foxtail, Giant plant response rating (giant foxtail; 500 g ai/ha, visual rating) | Lambsquarters plant response rating (lambsquarters; 500 g ai/ha, visual rating) | Pigweed plant response rating (pigweed; 125 g ai/ha, visual rating) | Plant response rating, Velvetleaf (velvetleaf; [12]) | Velvetleaf plant response rating (velvetleaf; 500 g ai/ha, visual rating)
20: Plant response rating, Barnyardgrass (barnyardgrass [1]; [12]) | Cocklebur plant response rating (cocklebur; 500 g ai/ha, visual rating) | Pigweed plant response rating (pigweed; 500 g ai/ha, visual rating) | Plant response rating, Sedge, Umbrella [8, 16]
100: Plant response rating, Crabgrass, Large (large crabgrass; [12])
80: Plant response rating, Pigweed (pigweed; [12]) | Sedge, Umbrella plant response rating [4] | Ducksalad plant response rating (ducksalad [5])
